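48-hour exposure; five concentrations; linearly interpolated endpoints. Abbreviation: GI50, concentration required for 50% inhibition of growth.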 Activity calls are given as the source filed them. No stated cut-off is given here; in the data, active = GI50 up to about 1.1 µM and inactive = higher.
Legend:
Test in all cases: NCI tumour cell line growth inhibition, 48 h
DLD-1 = tested on: DLD-1
KM-20L2 = tested on: KM-20L2
LXFL 529 = tested on: LXFL 529
M19-MEL = tested on: M19-MEL
SNB-78 = tested on: SNB-78
XF498 = tested on: XF498
DMS-273 = tested on: DMS-273
HOP-18 = tested on: HOP-18
RXF 631 = tested on: RXF 631

SMILES | GI50 (DLD-1) | GI50 (KM-20L2) | GI50 (LXFL 529) | GI50 (M19-MEL) | GI50 (SNB-78) | GI50 (XF498) | GI50 (DMS-273) | GI50 (HOP-18) | GI50 (RXF 631)
COc1ccccc1NC(=O)C1=C(C)NC(C)=C(C(=O)Nc2ccccc2OC)C1c1ccc(N(C)C)cc1 | 17.9 µM (inactive) | 23.7 µM (inactive) | 25.4 µM (inactive) | 31.5 µM (inactive) | 27.1 µM (inactive) | 12.1 µM (inactive) |  |  | 
COc1ccc(/C=C2\C(=O)NC(=O)c3ccccc32)cc1OC | 4.81 µM (inactive) | 5.07 µM (inactive) |  | 41 µM (inactive) | 6.58 µM (inactive) | 6.71 µM (inactive) | 21.4 µM (inactive) | > 100 µM (inactive) | 
COC(=O)C(=Cc1cc(OC)c(OC)c(OC)c1-c1cc2c(cc1C(C)=O)OCO2)C(=O)OC | 26.1 µM (inactive) | 34.3 µM (inactive) | 33.8 µM (inactive) | 34.6 µM (inactive) |  | 27.4 µM (inactive) | 30.7 µM (inactive) | 52.6 µM (inactive) | 
O=C1[C@H]2ON(c3ccccc3)C(c3ccc([N+](=O)[O-])cc3)[C@H]2C(=O)N1c1ccc(Cc2ccc(N3C(=O)[C@@H]4ON(c5ccccc5)C(c5ccc([N+](=O)[O-])cc5)[C@@H]4C3=O)cc2)cc1 (some centres undefined) | > 100 µM (inactive) | > 100 µM (inactive) | 74.6 µM (inactive) | > 100 µM (inactive) | > 100 µM (inactive) |  | > 100 µM (inactive) | > 100 µM (inactive) | > 100 µM (inactive)
O=[N+]([O-])c1cccc2nc3ccccc3c(NCCO)c12 | 0.000277 µM (active) | 0.000121 µM (active) | 0.00285 µM (active) | 0.0021 µM (active) | 0.00533 µM (active) | 0.00135 µM (active) | 0.00918 µM (active) | 0.0056 µM (active) | 
CC(=O)NNc1nc(C)c(C(=O)NNC(=O)C(=O)Nc2c(C)cccc2C(C)C)s1 |  | > 100 µM (inactive) | 46.1 µM (inactive) | > 100 µM (inactive) | 27.9 µM (inactive) | > 100 µM (inactive) | > 100 µM (inactive) |  | 
NC(=O)N/N=C/C(/C=N/NC(N)=O)[N+](=O)[O-] | > 100 µM (inactive) | > 100 µM (inactive) | > 100 µM (inactive) | > 100 µM (inactive) |  | > 100 µM (inactive) |  |  | > 100 µM (inactive)
CC1(c2ccc[n+](Cc3ccccc3)c2)OCCO1 | > 100 µM (inactive) | > 100 µM (inactive) | > 100 µM (inactive) | > 100 µM (inactive) | > 100 µM (inactive) |  | > 100 µM (inactive) | > 100 µM (inactive) | 
Cc1ccccc1NC(=O)c1c(C)oc2c1C(=O)c1ccccc1C2=O | 33 µM (inactive) | 65.5 µM (inactive) | 21.5 µM (inactive) | 8.63 µM (inactive) | 1.86 µM (inactive) | 32.2 µM (inactive) | 42 µM (inactive) |  | 
COc1cc2c(c3oc(-c4ccc5c(c4)OCO5)c(O)c(=O)c13)CCC(C)(C)O2 | > 100 µM (inactive) |  | 22.9 µM (inactive) | > 100 µM (inactive) | > 100 µM (inactive) |  | > 100 µM (inactive) | > 100 µM (inactive) | > 100 µM (inactive)
CCOC(=O)Oc1ccc2[nH]c3c(C)cc(N)c(C)c3c2c1 | > 100 µM (inactive) |  |  | > 100 µM (inactive) | > 100 µM (inactive) | > 100 µM (inactive) | > 100 µM (inactive) | > 100 µM (inactive) | 
CC(=O)OC1COC(N2C(=O)/C(=N\NC(N)=S)c3cc(Br)ccc32)C(OC(C)=O)C1OC(C)=O (centres undefined) | 42.2 µM (inactive) | > 100 µM (inactive) | 25.5 µM (inactive) | 53.5 µM (inactive) | 53.5 µM (inactive) | 37.1 µM (inactive) | 38.5 µM (inactive) | > 100 µM (inactive) | 
CCCN(CCCC(NC(C)=O)C(=O)NCc1ccccc1)C(=O)NCCCl (centres undefined) | > 100 µM (inactive) | > 100 µM (inactive) | > 100 µM (inactive) | > 100 µM (inactive) |  | > 100 µM (inactive) | > 100 µM (inactive) | > 100 µM (inactive) | > 100 µM (inactive)
COC(=O)C1=CO[C@@H](OC2CC(CO)C(O)C(O)C2O)[C@@H]2[C@@H](C)[C@@H](OC(=O)/C=C/c3ccccc3)[C@@H](O)[C@H]12.COC(=O)C1=CO[C@@H](OC2CC(CO)C(O)C(O)C2O)[C@@H]2[C@@H](C)[C@@H](OC(=O)c3ccccc3)[C@@H](O)[C@H]12 (some centres undefined) | > 100 µM (inactive) | > 100 µM (inactive) | > 100 µM (inactive) | > 100 µM (inactive) |  | > 100 µM (inactive) |  | > 100 µM (inactive) | 
COc1c(O)c(O)cc2c1-c1ccc(OC)c(=O)cc1C(NC(C)=O)CC2 (centres undefined) | 4.71 µM (inactive) | 2.7 µM (inactive) | 3.86 µM (inactive) | 6.12 µM (inactive) | 3.12 µM (inactive) | 5.38 µM (inactive) | 3.27 µM (inactive) | > 100 µM (inactive) | 14.9 µM (inactive)
CCNCC(=O)O[C@]1(CC)C(=O)OCc2c1cc1n(c2=O)Cc2cc3ccccc3nc2-1 | 2.37 µM (inactive) | 1.14 µM (inactive) | 4.73 µM (inactive) | 0.394 µM (active) | 5.11 µM (inactive) | 0.364 µM (active) | 0.0119 µM (active) | 0.44 µM (active) | 
O=C1/C(=C/c2cccc([N+](=O)[O-])c2)COc2ccc(Br)cc21 | > 100 µM (inactive) | > 100 µM (inactive) | > 100 µM (inactive) | > 100 µM (inactive) | > 100 µM (inactive) | > 100 µM (inactive) | 45.2 µM (inactive) | > 100 µM (inactive) | 
O=C(Cc1cc[n+]([O-])cc1)C(=O)Nc1cc(Cl)c(Cl)cc1Cl | > 100 µM (inactive) | > 100 µM (inactive) | > 100 µM (inactive) | > 100 µM (inactive) | > 100 µM (inactive) |  |  |  | > 100 µM (inactive)
O=C1C=C(Nc2ccc(S(=O)(=O)Nc3ncccn3)cc2)c2ccccc2C1=O | 20.7 µM (inactive) | 28.7 µM (inactive) | 23.2 µM (inactive) | 15.5 µM (inactive) | 28.8 µM (inactive) |  | 27.7 µM (inactive) | 26.3 µM (inactive) | 22.3 µM (inactive)
O=C(Nc1cccs1)c1c(O)[nH]c(=S)[nH]c1=O | > 100 µM (inactive) | > 100 µM (inactive) |  |  |  |  |  | > 100 µM (inactive) | > 100 µM (inactive)
CCCNC1=C(C(=O)OCC)C(=O)CO1 | > 100 µM (inactive) | > 100 µM (inactive) | > 100 µM (inactive) | > 100 µM (inactive) | > 100 µM (inactive) | > 100 µM (inactive) | > 100 µM (inactive) |  | > 100 µM (inactive)
CCOC(=O)c1ccn2c(c1)c(C#N)c1nc3ccccc3nc12 | 27.4 µM (inactive) | 71.9 µM (inactive) | 31.6 µM (inactive) | 61.8 µM (inactive) | 15.5 µM (inactive) | 33.7 µM (inactive) | 37.2 µM (inactive) |  | 
O=C1NC(=S)NC(=O)C1=CC1CC1 | > 100 µM (inactive) | > 100 µM (inactive) | > 100 µM (inactive) | > 100 µM (inactive) | > 100 µM (inactive) | > 100 µM (inactive) | > 100 µM (inactive) | > 100 µM (inactive) | 
CCOC(=O)C1=C(OC(OCC)C(C)[Se]c2ccccc2)CCC1 (centres undefined) | 19.3 µM (inactive) | 29.2 µM (inactive) | 14.3 µM (inactive) | 15.8 µM (inactive) | 97.1 µM (inactive) | 16.1 µM (inactive) | 10.3 µM (inactive) | 20.8 µM (inactive) | 
Cc1ccc(C(=O)C(C)N)cc1C (centres undefined) | > 100 µM (inactive) | > 100 µM (inactive) | > 100 µM (inactive) | > 100 µM (inactive) |  | 41.5 µM (inactive) |  |  | > 100 µM (inactive)
CC(=O)OC1CC2C(C)(C)C(=O)C=C[C@]2(C)C2CCC3(C)C(=CC(=O)C3c3ccoc3)[C@]12C (some centres undefined) | 12.4 µM (inactive) | 14.7 µM (inactive) | 24 µM (inactive) | 16 µM (inactive) | 31.4 µM (inactive) | 25.8 µM (inactive) |  | 18.4 µM (inactive) | 
COCC1N=C(c2cc(OC)c(OC)c(OC)c2-c2cc3c(cc2[C@H](C)O)OCO3)O[C@H]1c1ccccc1 (some centres undefined) | 83.6 µM (inactive) | > 100 µM (inactive) | 37.7 µM (inactive) | 37.1 µM (inactive) | 61 µM (inactive) |  | 37.2 µM (inactive) | 88.9 µM (inactive) | > 100 µM (inactive)
C[C@]12CCC(=O)C=C1CC[C@@H]1[C@@H]2[C@@H](O)C[C@@]2(C)[C@H]1CC[C@]2(O)C(=O)COC(=O)CCC1CCCC1 [HYDROCORTISONE CYPIONATE] | > 100 µM (inactive) | > 100 µM (inactive) | > 100 µM (inactive) | > 100 µM (inactive) | > 100 µM (inactive) | > 100 µM (inactive) | 61.1 µM (inactive) |  | 

— ChEMBL document CHEMBL1201862, “PubChem BioAssay data set” (2004)
